# Measurements reported in PubChem BioAssay (NCI).
#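 Results reflect a 48-hour exposure of cells in 96-well plates to compound at five concentrations. Here, GI50 denotes the concentration required for 50% inhibition of growth. At the TGI there is no net growth.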
# System: RXF 393 renal
# Assay: growth of human tumour cells (NCI), 48 h
row,Compound,TGI
1,COC1=C(Br)[C@H](O)[C@@]2(C=C1Br)CC(C(=O)NCCCCCN=C(N)N)=NO2,> 10 µM

# System: NCI-H460 lung
# Assay: growth of human tumour cells (NCI), 48 h
row,Compound,TGI
1,CC(=O)c1sc2c(c1OC(=O)c1cccs1)c(=O)n(-c1ccccc1)c(=S)n2-c1ccccc1,25.3 µM
2,NS(=O)(=O)c1ccc(-n2c(-c3cccs3)nc3ccc(I)cc3c2=O)cc1,83 µM
3,CCOC(=O)CC1c2ccc(O)cc2OC(=O)C1c1ccc([N+](=O)[O-])cc1 (configuration not stated),> 100 µM
4,CCOC(=O)C1(C(=O)OCC)CN(CC)CN(c2ccccc2)C1,> 100 µM
5,COC1=C(Br)[C@H](O)[C@@]2(C=C1Br)CC(C(=O)NCCCCCN=C(N)N)=NO2,> 10 µM

# System: A549 NSCLC
# Assay: growth of human tumour cells (NCI), 48 h
row,Compound,TGI
1,COc1ccc(C[N+]23C(CC[C@H]2c2ccccc2)CC[C@H]3c2ccccc2)cc1 (some centres not stated),> 100 µM
2,CC(=O)c1sc2c(c1OC(=O)c1cccs1)c(=O)n(-c1ccccc1)c(=S)n2-c1ccccc1,> 100 µM
3,NS(=O)(=O)c1ccc(-n2c(-c3cccs3)nc3ccc(I)cc3c2=O)cc1,41.5 µM
4,CCOC(=O)CC1c2ccc(O)cc2OC(=O)C1c1ccc([N+](=O)[O-])cc1 (configuration not stated),> 100 µM
5,CCOC(=O)C1(C(=O)OCC)CN(CC)CN(c2ccccc2)C1,49.3 µM
6,COC1=C(Br)[C@H](O)[C@@]2(C=C1Br)CC(C(=O)NCCCCCN=C(N)N)=NO2,> 10 µM
7,CC(=O)OC1CC2c3cccc4c3C(CC2N(C)C1=O)CN4C(=O)c1ccccc1 (configuration not stated),37.2 µM

# System: MDA-MB-435
# Assay: growth of human tumour cells (NCI), 48 h
row,Compound,TGI
1,COc1ccc(C[N+]23C(CC[C@H]2c2ccccc2)CC[C@H]3c2ccccc2)cc1 (some centres not stated),26.4 µM
2,CC(=O)c1sc2c(c1OC(=O)c1cccs1)c(=O)n(-c1ccccc1)c(=S)n2-c1ccccc1,20.8 µM
3,NS(=O)(=O)c1ccc(-n2c(-c3cccs3)nc3ccc(I)cc3c2=O)cc1,42.4 µM
4,CCOC(=O)CC1c2ccc(O)cc2OC(=O)C1c1ccc([N+](=O)[O-])cc1 (configuration not stated),56.1 µM
5,CCOC(=O)C1(C(=O)OCC)CN(CC)CN(c2ccccc2)C1,37.3 µM
6,COC1=C(Br)[C@H](O)[C@@]2(C=C1Br)CC(C(=O)NCCCCCN=C(N)N)=NO2,> 10 µM
7,CC(=O)OC1CC2c3cccc4c3C(CC2N(C)C1=O)CN4C(=O)c1ccccc1 (configuration not stated),52.6 µM

# System: ACHN renal
# Assay: growth of human tumour cells (NCI), 48 h
row,Compound,TGI
1,COc1ccc(C[N+]23C(CC[C@H]2c2ccccc2)CC[C@H]3c2ccccc2)cc1 (some centres not stated),> 100 µM
2,CC(=O)c1sc2c(c1OC(=O)c1cccs1)c(=O)n(-c1ccccc1)c(=S)n2-c1ccccc1,11.1 µM
3,NS(=O)(=O)c1ccc(-n2c(-c3cccs3)nc3ccc(I)cc3c2=O)cc1,53.8 µM
4,CCOC(=O)CC1c2ccc(O)cc2OC(=O)C1c1ccc([N+](=O)[O-])cc1 (configuration not stated),71.7 µM
5,CCOC(=O)C1(C(=O)OCC)CN(CC)CN(c2ccccc2)C1,35.8 µM
6,COC1=C(Br)[C@H](O)[C@@]2(C=C1Br)CC(C(=O)NCCCCCN=C(N)N)=NO2,> 10 µM
7,CC(=O)OC1CC2c3cccc4c3C(CC2N(C)C1=O)CN4C(=O)c1ccccc1 (configuration not stated),55.5 µM

# System: K-562 leukemia
# Assay: growth of human tumour cells (NCI), 48 h
Compound,TGI,GI50
COc1ccc(C[N+]23C(CC[C@H]2c2ccccc2)CC[C@H]3c2ccccc2)cc1 (some centres not stated),> 100 µM,
CC(=O)c1sc2c(c1OC(=O)c1cccs1)c(=O)n(-c1ccccc1)c(=S)n2-c1ccccc1,95.4 µM,
NS(=O)(=O)c1ccc(-n2c(-c3cccs3)nc3ccc(I)cc3c2=O)cc1,> 100 µM,37.2 µM
CCOC(=O)CC1c2ccc(O)cc2OC(=O)C1c1ccc([N+](=O)[O-])cc1 (configuration not stated),> 100 µM,
CCOC(=O)C1(C(=O)OCC)CN(CC)CN(c2ccccc2)C1,> 100 µM,
COC1=C(Br)[C@H](O)[C@@]2(C=C1Br)CC(C(=O)NCCCCCN=C(N)N)=NO2,> 10 µM,
CC(=O)OC1CC2c3cccc4c3C(CC2N(C)C1=O)CN4C(=O)c1ccccc1 (configuration not stated),> 100 µM,

# System: HOP-62 NSCLC
# Assay: growth of human tumour cells (NCI), 48 h
row,Compound,TGI
1,COc1ccc(C[N+]23C(CC[C@H]2c2ccccc2)CC[C@H]3c2ccccc2)cc1 (some centres not stated),67.3 µM
2,CC(=O)c1sc2c(c1OC(=O)c1cccs1)c(=O)n(-c1ccccc1)c(=S)n2-c1ccccc1,33.9 µM
3,NS(=O)(=O)c1ccc(-n2c(-c3cccs3)nc3ccc(I)cc3c2=O)cc1,84.2 µM
4,CCOC(=O)CC1c2ccc(O)cc2OC(=O)C1c1ccc([N+](=O)[O-])cc1 (configuration not stated),68.2 µM
5,CCOC(=O)C1(C(=O)OCC)CN(CC)CN(c2ccccc2)C1,40.4 µM
6,COC1=C(Br)[C@H](O)[C@@]2(C=C1Br)CC(C(=O)NCCCCCN=C(N)N)=NO2,> 10 µM
7,CC(=O)OC1CC2c3cccc4c3C(CC2N(C)C1=O)CN4C(=O)c1ccccc1 (configuration not stated),77.4 µM

# System: IGROV1 ovarian
# Assay: growth of human tumour cells (NCI), 48 h
row,Compound,TGI
1,COc1ccc(C[N+]23C(CC[C@H]2c2ccccc2)CC[C@H]3c2ccccc2)cc1 (some centres not stated),36.5 µM
2,CC(=O)c1sc2c(c1OC(=O)c1cccs1)c(=O)n(-c1ccccc1)c(=S)n2-c1ccccc1,35.4 µM
3,NS(=O)(=O)c1ccc(-n2c(-c3cccs3)nc3ccc(I)cc3c2=O)cc1,56 µM
4,CCOC(=O)CC1c2ccc(O)cc2OC(=O)C1c1ccc([N+](=O)[O-])cc1 (configuration not stated),60.5 µM
5,CCOC(=O)C1(C(=O)OCC)CN(CC)CN(c2ccccc2)C1,39.8 µM
6,COC1=C(Br)[C@H](O)[C@@]2(C=C1Br)CC(C(=O)NCCCCCN=C(N)N)=NO2,> 10 µM
7,CC(=O)OC1CC2c3cccc4c3C(CC2N(C)C1=O)CN4C(=O)c1ccccc1 (configuration not stated),43.8 µM

# System: OVCAR-4 ovarian
# Assay: growth of human tumour cells (NCI), 48 h
row,Compound,TGI
1,COc1ccc(C[N+]23C(CC[C@H]2c2ccccc2)CC[C@H]3c2ccccc2)cc1 (some centres not stated),84.1 µM
2,CC(=O)c1sc2c(c1OC(=O)c1cccs1)c(=O)n(-c1ccccc1)c(=S)n2-c1ccccc1,38.8 µM
3,NS(=O)(=O)c1ccc(-n2c(-c3cccs3)nc3ccc(I)cc3c2=O)cc1,86.3 µM
4,CCOC(=O)CC1c2ccc(O)cc2OC(=O)C1c1ccc([N+](=O)[O-])cc1 (configuration not stated),92.3 µM
5,CCOC(=O)C1(C(=O)OCC)CN(CC)CN(c2ccccc2)C1,49.1 µM
6,COC1=C(Br)[C@H](O)[C@@]2(C=C1Br)CC(C(=O)NCCCCCN=C(N)N)=NO2,> 10 µM
7,CC(=O)OC1CC2c3cccc4c3C(CC2N(C)C1=O)CN4C(=O)c1ccccc1 (configuration not stated),92.3 µM

# System: OVCAR-3 ovarian
# Assay: growth of human tumour cells (NCI), 48 h
row,Compound,TGI
1,COc1ccc(C[N+]23C(CC[C@H]2c2ccccc2)CC[C@H]3c2ccccc2)cc1 (some centres not stated),37 µM
2,CC(=O)c1sc2c(c1OC(=O)c1cccs1)c(=O)n(-c1ccccc1)c(=S)n2-c1ccccc1,50.4 µM
3,NS(=O)(=O)c1ccc(-n2c(-c3cccs3)nc3ccc(I)cc3c2=O)cc1,35.1 µM
4,CCOC(=O)CC1c2ccc(O)cc2OC(=O)C1c1ccc([N+](=O)[O-])cc1 (configuration not stated),> 100 µM
5,CCOC(=O)C1(C(=O)OCC)CN(CC)CN(c2ccccc2)C1,33.5 µM
6,COC1=C(Br)[C@H](O)[C@@]2(C=C1Br)CC(C(=O)NCCCCCN=C(N)N)=NO2,> 10 µM
7,CC(=O)OC1CC2c3cccc4c3C(CC2N(C)C1=O)CN4C(=O)c1ccccc1 (configuration not stated),30.1 µM

# System: T-47D breast
# Assay: growth of human tumour cells (NCI), 48 h
Compound,TGI,GI50
COc1ccc(C[N+]23C(CC[C@H]2c2ccccc2)CC[C@H]3c2ccccc2)cc1 (some centres not stated),61.5 µM,
CC(=O)c1sc2c(c1OC(=O)c1cccs1)c(=O)n(-c1ccccc1)c(=S)n2-c1ccccc1,> 100 µM,
NS(=O)(=O)c1ccc(-n2c(-c3cccs3)nc3ccc(I)cc3c2=O)cc1,43.5 µM,19.2 µM
CCOC(=O)CC1c2ccc(O)cc2OC(=O)C1c1ccc([N+](=O)[O-])cc1 (configuration not stated),60 µM,
COC1=C(Br)[C@H](O)[C@@]2(C=C1Br)CC(C(=O)NCCCCCN=C(N)N)=NO2,> 10 µM,
CC(=O)OC1CC2c3cccc4c3C(CC2N(C)C1=O)CN4C(=O)c1ccccc1 (configuration not stated),> 100 µM,

# System: U251 CNS
# Assay: growth of human tumour cells (NCI), 48 h
row,Compound,TGI
1,COc1ccc(C[N+]23C(CC[C@H]2c2ccccc2)CC[C@H]3c2ccccc2)cc1 (some centres not stated),> 100 µM
2,CC(=O)c1sc2c(c1OC(=O)c1cccs1)c(=O)n(-c1ccccc1)c(=S)n2-c1ccccc1,26.7 µM
3,NS(=O)(=O)c1ccc(-n2c(-c3cccs3)nc3ccc(I)cc3c2=O)cc1,48.8 µM
4,CCOC(=O)CC1c2ccc(O)cc2OC(=O)C1c1ccc([N+](=O)[O-])cc1 (configuration not stated),> 100 µM
5,COC1=C(Br)[C@H](O)[C@@]2(C=C1Br)CC(C(=O)NCCCCCN=C(N)N)=NO2,> 10 µM
6,CC(=O)OC1CC2c3cccc4c3C(CC2N(C)C1=O)CN4C(=O)c1ccccc1 (configuration not stated),53.3 µM

# System: HT29 colon
# Assay: growth of human tumour cells (NCI), 48 h
row,Compound,TGI
1,COc1ccc(C[N+]23C(CC[C@H]2c2ccccc2)CC[C@H]3c2ccccc2)cc1 (some centres not stated),> 100 µM
2,CC(=O)c1sc2c(c1OC(=O)c1cccs1)c(=O)n(-c1ccccc1)c(=S)n2-c1ccccc1,11.6 µM
3,NS(=O)(=O)c1ccc(-n2c(-c3cccs3)nc3ccc(I)cc3c2=O)cc1,94.1 µM
4,CCOC(=O)CC1c2ccc(O)cc2OC(=O)C1c1ccc([N+](=O)[O-])cc1 (configuration not stated),> 100 µM
5,CCOC(=O)C1(C(=O)OCC)CN(CC)CN(c2ccccc2)C1,37.8 µM
6,COC1=C(Br)[C@H](O)[C@@]2(C=C1Br)CC(C(=O)NCCCCCN=C(N)N)=NO2,> 10 µM
7,CC(=O)OC1CC2c3cccc4c3C(CC2N(C)C1=O)CN4C(=O)c1ccccc1 (configuration not stated),49.9 µM

# System: 786-0 renal
# Assay: growth of human tumour cells (NCI), 48 h
row,Compound,TGI
1,COc1ccc(C[N+]23C(CC[C@H]2c2ccccc2)CC[C@H]3c2ccccc2)cc1 (some centres not stated),> 100 µM
2,CC(=O)c1sc2c(c1OC(=O)c1cccs1)c(=O)n(-c1ccccc1)c(=S)n2-c1ccccc1,15.5 µM
3,NS(=O)(=O)c1ccc(-n2c(-c3cccs3)nc3ccc(I)cc3c2=O)cc1,77.8 µM
4,CCOC(=O)CC1c2ccc(O)cc2OC(=O)C1c1ccc([N+](=O)[O-])cc1 (configuration not stated),> 100 µM
5,CCOC(=O)C1(C(=O)OCC)CN(CC)CN(c2ccccc2)C1,35.2 µM
6,COC1=C(Br)[C@H](O)[C@@]2(C=C1Br)CC(C(=O)NCCCCCN=C(N)N)=NO2,> 10 µM
7,CC(=O)OC1CC2c3cccc4c3C(CC2N(C)C1=O)CN4C(=O)c1ccccc1 (configuration not stated),52.2 µM

# System: OVCAR-5 ovarian
# Assay: growth of human tumour cells (NCI), 48 h
row,Compound,TGI
1,COc1ccc(C[N+]23C(CC[C@H]2c2ccccc2)CC[C@H]3c2ccccc2)cc1 (some centres not stated),> 100 µM
2,CC(=O)c1sc2c(c1OC(=O)c1cccs1)c(=O)n(-c1ccccc1)c(=S)n2-c1ccccc1,13.2 µM
3,NS(=O)(=O)c1ccc(-n2c(-c3cccs3)nc3ccc(I)cc3c2=O)cc1,59.9 µM
4,CCOC(=O)CC1c2ccc(O)cc2OC(=O)C1c1ccc([N+](=O)[O-])cc1 (configuration not stated),> 100 µM
5,CCOC(=O)C1(C(=O)OCC)CN(CC)CN(c2ccccc2)C1,34.9 µM
6,COC1=C(Br)[C@H](O)[C@@]2(C=C1Br)CC(C(=O)NCCCCCN=C(N)N)=NO2,> 10 µM
7,CC(=O)OC1CC2c3cccc4c3C(CC2N(C)C1=O)CN4C(=O)c1ccccc1 (configuration not stated),> 100 µM
